Columns and labels:
Assay type in all cases: in vivo
db/db mice [1] = assay: Oral glucose tolerance test on Day 28 in db/db mice given agents in feed (Example 1-2); conditions: feed with 0.02 (w/w) % Compound A and/or 0.06 (w/w) % sitagliptin; for Blood glucose level after the glucose load on Day 28 / Area under the curve of blood glucose level after the glucose load on Day 28: OGTT 2 g/kg glucose, mean ± SD, n = 8; for Blood glucose level after the glucose load on Day 28: fasted overnight; for Area under the curve of blood glucose level in oral glucose tolerance test versus control (in words): Day 28
Description: (§1) The antidiabetic action resulting from the combination of an insulin secretagogue (DPP-4 inhibitor) and Compound A was studied by using db/db mice (8 weeks old, male, CLEA Japan, Inc.). The db/db mice were allocated to 4 groups (8 mice/group). The mice in Group 1 were given powdered feed (control), Group 2 were given powdered feed containing 0.02 (w/w) % of Compound A, Group 3 were given powdered feed containing 0.06 (w/w) % of sitagliptin, and Group 4 were given powdered feed containing 0.02 (w/w) % of Compound A and 0.06 (w/w) % of sitagliptin. In addition, the powdered feed mentioned-above were all the same (i.e. trade name: CE-2, CLEA Japan, Inc.). An oral glucose tolerance test was performed on Day 28. To be more specific, on the day before the test, the mice were fasted overnight; and on the test day, 2 g/kg of glucose was administered by gavage to study the changes in blood glucose levels. Glycosylated hemoglobin (hereinafter, referred to as “HbAlc”) was measured on Day 33.

db/db mice [2] = assay: HbA1c change to Day 33 in db/db mice given agents in feed (Example 1-2); conditions: start of experiment to Day 33, feed with 0.02 (w/w) % Compound A and/or 0.06 (w/w) % sitagliptin; for Amounts of change in HbA1c before and after treatment: mean ± SD, n = 8
Description: as §1

C57BL/KsJ-db/db mice [3] = assay: Blood glucose after glibenclamide administration in db/db mice repeatedly given Compound A (Example 1-1); conditions: for Blood glucose level after the glibenclamide administration (relative value when blood glucose level at 0 hr is 100%) / Area under the curve of blood glucose level after the glibenclamide administration (relative value when blood glucose level at 0 hr is 100%): vehicle or Compound A 30 mg/kg once a day 15 days, next day vehicle or glibenclamide 10 mg/kg by gavage, n = 8; for Blood glucose level after the glibenclamide administration (relative value when blood glucose level at 0 hr is 100%): feed removed; for Blood glucose level after the glibenclamide administration (relative value when blood glucose level at 0 hr is 100%) / Blood glucose level before the glibenclamide administration / Area under the curve of blood glucose level after the glibenclamide administration (relative value when blood glucose level at 0 hr is 100%): mean ± SD; for Blood glucose level before the glibenclamide administration: Compound A 30 mg/kg by gavage once a day for 15 days, next day, before glibenclamide/vehicle, n = 8, 30 mg/kg; for Decrease of blood glucose levels after glibenclamide/vehicle administration (in words): vehicle or Compound A 30 mg/kg 15 days, then vehicle or glibenclamide 10 mg/kg
Experimental: The antidiabetic action resulting from the combination of an insulin secretagogue (SU drug) and Compound A was studied by using C57BL/KsJ-db/db mice (hereinafter, referred to as “db/db mice”) (9 weeks old, male, CLEA Japan, Inc.) as a model of type 2 diabetes. The db/db mice were allocated to 4 groups (8 mice/group), and each group was put into a cage provided with feed. Among the 4 groups, a vehicle (0.5% methylcellulose solution) was administered to Groups 1 and 2 by gavage once a day for 15 days, and Compound A (30 mg/kg) was administered to Groups 3 and 4 under the same condition as Groups 1 and 2. On the next day after the last administration, the vehicle was administered to Groups 1 and 3, and glibenclamide (10 mg/kg) was administered to Groups 2 and 4, both by gavage; then the feed were removed from the cages and the changes in blood glucose levels were studied in each group. […]

C57BL/KsJ-db/db mice [4] = assay: Blood insulin after glibenclamide administration in db/db mice repeatedly given Compound A (Example 1-1); conditions: vehicle or Compound A 30 mg/kg once a day 15 days, next day vehicle or glibenclamide 10 mg/kg by gavage, mean ± SD, n = 8
Experimental: The antidiabetic action resulting from the combination of an insulin secretagogue (SU drug) and Compound A was studied by using C57BL/KsJ-db/db mice (hereinafter, referred to as “db/db mice”) (9 weeks old, male, CLEA Japan, Inc.) as a model of type 2 diabetes. The db/db mice were allocated to 4 groups (8 mice/group), and each group was put into a cage provided with feed. Among the 4 groups, a vehicle (0.5% methylcellulose solution) was administered to Groups 1 and 2 by gavage once a day for 15 days, and Compound A (30 mg/kg) was administered to Groups 3 and 4 under the same condition as Groups 1 and 2. On the next day after the last administration, the vehicle was administered to Groups 1 and 3, and glibenclamide (10 mg/kg) was administered to Groups 2 and 4, both by gavage; then the feed were removed from the cages and the changes in blood glucose levels were studied in each group.
As a result, blood insulin level was higher in Group 4 (i.e. repeatedly administered with Compound A and then with glibenclamide) than in Groups 1 and 2 (i.e. repeatedly administered with the vehicle).

db/db mice [5] = assay: Blood glucose level on Day 11 in db/db mice, Compound A and metformin (Example 1-3); conditions: Compound A 30 mg/kg and/or metformin 300 mg/kg by gavage once a day for 14 days; for Blood glucose level: Day 11, mean ± SD, n = 8, in mg/dL (unit assumed)
Experimental: (§2) The antidiabetic action resulting from the combination of an insulin-sensitizing drug and a biguanide was studied by using db/db mice (8 weeks old, male, CLEA Japan, Inc.). The db/db mice were allocated to 4 groups (8 mice/group). Among the 4 groups, a vehicle (0.5% methylcellulose solution) was administered to Group 1 by gavage once a day for 14 days from the day of grouping (Day 1); Compound A (30 mg/kg) was administered to Group 2, metformin (300 mg/kg) was administered to Group 3, and Compound A (30 mg/kg) and metformin (300 mg/kg) were administered to Group 4 under the same condition as Group 1. Blood glucose and HbAlc levels were measured on Day 11 and Day 15, respectively.

db/db mice [6] = assay: HbA1c change Day 1 to Day 15 in db/db mice, Compound A and metformin (Example 1-3); conditions: Compound A 30 mg/kg and/or metformin 300 mg/kg by gavage once a day for 14 days
Experimental: as §2

SMILES | Blood glucose level after the glucose load on Day 28 (db/db mice [1]; 0 min) [mg/dL] | Blood glucose level after the glucose load on Day 28 (db/db mice [1]; 10 min) [mg/dL] | Blood glucose level after the glucose load on Day 28 (db/db mice [1]; 30 min) [mg/dL] | Blood glucose level after the glucose load on Day 28 (db/db mice [1]; 60 min) [mg/dL] | Blood glucose level after the glucose load on Day 28 (db/db mice [1]; 90 min) [mg/dL] | Blood glucose level after the glucose load on Day 28 (db/db mice [1]; 120 min) [mg/dL] | Area under the curve of blood glucose level in oral glucose tolerance test versus control (in words) (db/db mice [1]) | Area under the curve of blood glucose level after the glucose load on Day 28 (db/db mice [1]) [mg·min/dL] | Change in HbA1c versus control (in words) (db/db mice [2]) | Amounts of change in HbA1c before and after treatment (db/db mice [2]) [%] | Blood glucose level after the glibenclamide administration (relative value when blood glucose level at 0 hr is 100%) (C57BL/KsJ-db/db mice [3]; 1 hr) [%] | Blood glucose level after the glibenclamide administration (relative value when blood glucose level at 0 hr is 100%) (C57BL/KsJ-db/db mice [3]; 2 hr) [%] | Blood glucose level after the glibenclamide administration (relative value when blood glucose level at 0 hr is 100%) (C57BL/KsJ-db/db mice [3]; 4 hr) [%] | Blood glucose level after the glibenclamide administration (relative value when blood glucose level at 0 hr is 100%) (C57BL/KsJ-db/db mice [3]; 6 hr) [%] | Decrease of blood glucose levels after glibenclamide/vehicle administration (in words) (C57BL/KsJ-db/db mice [3]) | Area under the curve of blood glucose level after the glibenclamide administration (relative value when blood glucose level at 0 hr is 100%) (C57BL/KsJ-db/db mice [3]) [% · hr] | Blood insulin level after the glibenclamide administration (relative value when insulin level at 0 hr is 100%) (C57BL/KsJ-db/db mice [4]; 1 hr) [%] | Blood insulin level after the glibenclamide administration (relative value when insulin level at 0 hr is 100%) (C57BL/KsJ-db/db mice [4]; 2 hr) [%] | Area under the curve of blood insulin level after the glibenclamide administration (relative value when insulin level at 0 hr is 100%) (C57BL/KsJ-db/db mice [4]) [% · hr] | Blood glucose level (Day 11) and amount of HbA1c change (Day 1 to Day 15); single agents versus vehicle, combination versus single agents (in words) (db/db mice [5]) | further results
N[C@@H](CC(=O)N1CCn2c(nnc2C(F)(F)F)C1)Cc1cc(F)c(F)cc1F [Sitagliptin, sitagliptin, reference compound] | 167 ± 15 | 542 ± 81 | 588 ± 125 | 510 ± 95 | 455 ± 100 | 408 ± 107 | significant difference was not observed | 57680 ± 10679 | A difference was not observed | 1.68 ± 0.51 |  |  |  |  |  |  |  |  |  |  | 
Cc1ccc(C(=O)c2cccn2C/C=C/c2ccc(COC(C)(C)C(=O)O)cc2)cc1 [Compound A, 2-methyl-2-[(4-{(1E)-3-[2-(4-methylbenzoyl)-1H-pyrrol-1-yl]prop-1-en-1-yl}benzyl)oxy]propanoic acid] | 146 ± 33 | 500 ± 62 | 633 ± 57 | 566 ± 41 | 457 ± 74 | 412 ± 82 | significant difference was not observed | 59692 ± 4741 | A difference was not observed | 1.28 ± 0.53 | 100.2 ± 10.2 | 96.1 ± 14.2 | 93.8 ± 15.9 | 93.6 ± 14.1 | did not | 575.6 ± 73.0 | 55.9 ± 15.8 | 61.6 ± 17.3 | 136.8 ± 17.7 | significant decrease of blood glucose level and amount of HbAlc change | Blood glucose level before the glibenclamide administration (C57BL/KsJ-db/db mice [3]; group later given glibenclamide): 323.4 ± 75.7 mg/dL; Blood glucose level before the glibenclamide administration (C57BL/KsJ-db/db mice [3]; group later given vehicle): 332.1 ± 90.8 mg/dL; Blood glucose level (db/db mice [5]): 321.9 ± 43.5; Amount of change in HbA1c (db/db mice [6]): 0.93 ± 0.28
COc1ccc(Cl)cc1C(=O)NCCc1ccc(S(=O)(=O)NC(=O)NC2CCCCC2)cc1 [Glibenclamide, glibenclamide, reference compound] |  |  |  |  |  |  |  |  |  |  | 96.2 ± 7.7 | 91.3 ± 5.9 | 82.9 ± 12.7 | 80.9 ± 12.1 | no decrease in blood glucose levels | 530.0 ± 35.1 | 75.1 ± 25.1 | 83.3 ± 21.4 | 166.7 ± 31.5 |  | 
CN(C)C(=N)N=C(N)N [Metformin, metformin, reference compound] |  |  |  |  |  |  |  |  |  |  |  |  |  |  |  |  |  |  |  | significant decrease of blood glucose level and amount of HbAlc change | Blood glucose level (db/db mice [5]): 323.5 ± 66.3; Amount of change in HbA1c (db/db mice [6]): 1.09 ± 0.16

From patent US20110212892A1, “AGENT FOR TREATMENT OF DIABETES” (Dainippon Sumitomo Pharma Co., Ltd., priority 2008, published 2011)
